Assay results as given in patent US20180087086A1, “CELL EGRESS AND INVASION INHIBITORS AND THEIR USE AS ANTIPARASITICAL AGENTS” (THE JOHNS HOPKINS UNIVERSITY, priority 2015, published 2018).
Where a name gives a salt, the structure may show the parent alone.

What was measured:
[1] = target: P. falciparum aldolase in the presence of TRAP (Plasmodium falciparum, UniProt Q7KQL9); experiment: aldolase enzyme activity assay, P. falciparum aldolase in the presence of TRAP; assay type: biochemical; settings: in the presence of TRAP and the compounds
Chain of P. falciparum aldolase in the presence of TRAP (Q7KQL9 whole entry): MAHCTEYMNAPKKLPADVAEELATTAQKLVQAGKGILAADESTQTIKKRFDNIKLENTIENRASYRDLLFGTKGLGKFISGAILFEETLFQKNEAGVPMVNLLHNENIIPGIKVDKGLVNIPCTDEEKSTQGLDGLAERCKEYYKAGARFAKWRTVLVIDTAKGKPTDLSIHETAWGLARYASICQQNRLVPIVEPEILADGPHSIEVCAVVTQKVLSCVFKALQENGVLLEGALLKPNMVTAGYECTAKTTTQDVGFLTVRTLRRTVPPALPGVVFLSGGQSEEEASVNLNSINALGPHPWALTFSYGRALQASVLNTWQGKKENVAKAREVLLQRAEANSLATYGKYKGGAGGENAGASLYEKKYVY
Description: (§1) FIGS. 16A-16D depict an aldolase enzyme activity assay. (A) Cartoon and surface representation of aldolase with TRAPpep bound (magenta, sticks) (PDB entry 2pc4), overlapping the F16BP (green, sticks) substrate binding site (PDB entry 4ald), via PyMOL. (B) Coupled enzyme assay to measure aldolase activity via NADH consumption as measured at 340 nm. (C) Concentration-dependent effect of compounds on PfAldolase inhibition in the presence of PbTRAP peptide. Activity is normalized to the PbTRAP control, which reduces Vmax to 50% of enzyme without PbTRAP. (D) PfAldolase activity in the presence of compounds to determine direct inhibition of enzyme by the compounds. Activity is normalized to the PfAldolase control measured Vmax. Standard error means plotted for activity assays and standard deviation for SPR data.
(§2) Dose-Dependent Enzymatic Inhibition of Compounds on P. falciparum Aldolase and Rabbit Aldolase as a Surrogate for Human Aldolase.

[2] = target: T1, rabbit aldolase (Oryctolagus cuniculus, UniProt P00883); experiment: aldolase enzyme activity assay, rabbit aldolase; assay type: biochemical; settings: surrogate for human aldolase
T1 sequence (P00883 1-364): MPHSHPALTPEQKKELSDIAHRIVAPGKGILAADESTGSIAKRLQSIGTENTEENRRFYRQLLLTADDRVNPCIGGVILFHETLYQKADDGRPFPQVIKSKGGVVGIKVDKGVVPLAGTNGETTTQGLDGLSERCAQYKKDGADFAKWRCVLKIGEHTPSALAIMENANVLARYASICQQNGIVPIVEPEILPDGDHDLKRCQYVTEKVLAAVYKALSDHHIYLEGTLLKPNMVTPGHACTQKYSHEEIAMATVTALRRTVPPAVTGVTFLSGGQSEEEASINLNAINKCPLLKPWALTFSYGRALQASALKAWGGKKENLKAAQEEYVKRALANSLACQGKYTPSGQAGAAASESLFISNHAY
Description: as §1, §2

[3] = test system: P. berghei sporozoites; experiment: trail radius of gliding sporozoites (ImageJ); assay type: cell-based; settings: 62.5 μM; 130-150 trail radii; p-value <0.0001
Description: The trail radius was measured using ImageJ and the statistical analyses to determine standard error mean and t-test were performed using GraphPad.
The gliding phenotype was altered to determine whether the compounds were having off-target effects. While quantifying the number of deposited trails, the trail diameter in the presence of compounds was altered. An altered trail diameter is more likely due to either a direct effect on the motor or an effect on sporozoite shape. The diameter of the circular trails deposited by the parasites in the DMSO control was measured and in the presence of three compounds at 62.5 μM (FIG. 8). This concentration was chosen because at higher concentrations, there were not enough sporozoite trails to measure to do a statistical analysis of the results. Using ImageJ, circles were fit to trails in multiple images to measure 130-150 trail radii. The average trail radii increased in the presence of compounds 4, 17, and 18 with a p-value <0.0001. The increase in average trail size was 6.3 microns, 2.5 microns, and 3.6, for compounds 4, 17, and 18, respectively.

SMILES	inhibition of P. falciparum aldolase [1]	enzyme inhibition on rabbit aldolase [2]	increase in average trail size (trail radius) vs DMSO control [3] [microns]
CCN(CC)S(=O)(=O)c1ccc(-c2csc(Nc3ccc(C)c(C)c3)n2)cc1 [Compound 3, 4-{2-[(3,4-dimethylphenyl)amino]-1,3-thiazol-4-yl}-N,N-diethylbenzenesulfonamide hydrobromide]	inhibited	no enzyme inhibition	
O=C(Nc1ccc(-c2nc3cc4ccccc4cc3[nH]2)cc1)c1cccc(Br)c1 [Compound 17, 3-bromo-N-[4-(1H-naphtho[2,3-d]imidazol-2-yl)phenyl]benzamide]			2.5
